{
  "source": "patent US20170224692A1",
  "about": "“Combination Therapy” (Novartis AG, priority 2014, published 2017)",
  "assay_type_in_all_cases": "cell-based",
  "key": {"YD-38 cells": {"system": "YD-38 cells", "assay": "3 day CellTiter-Glo cell proliferation assay / dose matrix combination, YD-38", "protocol": "(§1) YD-38, CAL-33 and CCK-81 cells were cultured at 37° C. in a 5% CO2 incubator using the ATCC media (YD-38, RPMI-1640; CAL-33, DMEM; CCK-81, EMEM) supplemented with 10% FBS (Thermo scientific, SH30071.03). […] L-glutamine (Invitrogen, #25030-081) was also supplemented for CAL-33 media. Cells were passaged twice a week using TryPLE Express (Invitrogen, #12604-013).\n(§2) Cell viability was determined by measuring cellular ATP content using the CellTiter-Glo®(CTG) luminescent cell viability assay (Promega #G7573) according to the manufacturer's protocol. Briefly, various number of cells (6000 for CAL-33, 4200 for YD-38 and 7000 for CCK-81) were seeded in 80 μl growth media per well in clear-bottom 96-well black plates (Costar, #3904) in triplicates. Cells were allowed to attach overnight prior to 72 hours of treatment with indicated compounds (serially-diluted where applicable) and/or 75 ng/ml HGF in a volume of 100 ul for HGF rescue experiment (+20 μl compound or HGF) or 140 ul for Chalice combination experiment (+20 μl compound A+20 μl compound B+20 ul media or HGF). At the end of the drug treatment, 100 ul CTG reagent was added to each well to lyse the cells, and luminescence signals were recorded in the Envision plate reader (Perkin Elmer).\n(§3) In all combination assays, compounds were applied simultaneously. […] INC280 was subjected to a 7 doses 3× serial dilution with the highest dose at 1.5 μM and the lowest dose at about […]. The synergistic interaction was analyzed using Chalice software (CombinatoRx, Cambridge Mass.). Synergy was calculated by comparing a combination's response to those of its single agents, against the drug-with-itself dose-additive reference model and reported as Synergy Score (Lehar et al., 2009).\n(§4) YD-38, CAL-33 and CCK-81 cells were treated in 96-well format for 3 days with HGF alone, Panitumumab alone, Panitumumab as a singal agent and Panitumumab with INC280 in the present or absent of HGF. (FIGS. 6 and 7). Cell viability was measured using the CellTiter-Glo assay. % viability was plotted as bar graphs with mean values and standard deviations from triplicates. […] Each data point represents averaged data from 3 wells +standard deviation, and the color spectrum also represents the level of the inhibition."}, "CAL-33 cells": {"system": "CAL-33 cells", "assay": "3 day CellTiter-Glo cell proliferation assay / dose matrix combination, CAL-33", "protocol": "as §1, §2, §3, §4"}, "CCK-81 cells": {"system": "CCK-81 cells", "assay": "3 day CellTiter-Glo cell proliferation assay / dose matrix combination, CCK-81", "protocol": "as §1, §2, §3, §4"}, "[1]": {"system": "YD-38, CAL-33 and CCK-81 cells", "assay": "3 day CellTiter-Glo proliferation / dose matrix combination, statements over all three cell lines", "protocol": "Cell viability was determined by measuring cellular ATP content using the CellTiter-Glo®(CTG) luminescent cell viability assay (Promega #G7573) according to the manufacturer's protocol. Briefly, various number of cells (6000 for CAL-33, 4200 for YD-38 and 7000 for CCK-81) were seeded in 80 μl growth media per well in clear-bottom 96-well black plates (Costar, #3904) in triplicates. […] At the end of the drug treatment, 100 ul CTG reagent was added to each well to lyse the cells, and luminescence signals were recorded in the Envision plate reader (Perkin Elmer).\nIn all combination assays, compounds were applied simultaneously. […] The synergistic interaction was analyzed using Chalice software (CombinatoRx, Cambridge Mass.). Synergy was calculated by comparing a combination's response to those of its single agents, against the drug-with-itself dose-additive reference model and reported as Synergy Score (Lehar et al., 2009).\nYD-38, CAL-33 and CCK-81 cells were treated in 96-well format for 3 days with HGF alone, Panitumumab alone, Panitumumab as a singal agent and Panitumumab with INC280 in the present or absent of HGF. […] Cell viability was measured using the CellTiter-Glo assay. % viability was plotted as bar graphs with mean values and standard deviations from triplicates. […]"}, "[2]": {"settings": "INC280 single agent, dose matrix"}, "[3]": {"settings": "co-treatment with 500 nM INC280, 100 nM Cetuximab, 75 ng/ml HGF"}, "[4]": {"settings": "addition of 75 ng/ml HGF together with antibody"}},
  "note": "Values joined by “and” are separate entries in the source; they are usually repeats but may differ in a detail not shown here. Equal values may be shown once.",
  "data": [
    {"compound": "CNC(=O)c1ccc(-c2cnc3ncc(Cc4ccc5ncccc5c4)n3n2)cc1F", "note": "[INC280, 2-fluoro-N-methyl-4-[(7-quinolin-6-yl-methyl)-imidazo[1,2-b]triazin-2-yl]benzamide]", "values": [
      {"measurement": "anti-proliferation effect, single agent", "setting": "YD-38 cells; [2]", "value": "no anti-proliferation effect"},
      {"measurement": "block of the HGF rescue of Cetuximab effect", "setting": "YD-38 cells; [3]", "value": "completely blocked"},
      {"measurement": "INC280 concentration that re-sensitized HGF-treated cells to Cetuximab", "setting": "YD-38 cells; presence of HGF, dose matrix", "value": 18, "unit": "nM"},
      {"measurement": "anti-proliferation effect, single agent", "setting": "CAL-33 cells; [2]", "value": "no anti-proliferation effect"},
      {"measurement": "block of the HGF rescue of Cetuximab effect", "setting": "CAL-33 cells; [3]", "value": "completely blocked"},
      {"measurement": "INC280 concentration that re-sensitized HGF-treated cells to Cetuximab", "setting": "CAL-33 cells; presence of HGF, dose matrix", "value": 18, "unit": "nM"},
      {"measurement": "inhibition at 1.5 µM", "setting": "CCK-81 cells; INC280 at 1.5 μM, presence of HGF, read-out: growth inhibition, single agent", "value": "~20", "unit": "%"},
      {"measurement": "block of the HGF rescue of Cetuximab effect", "setting": "CCK-81 cells; [3]", "value": "fully blocked"},
      {"measurement": "INC280 concentration that re-sensitized HGF-treated cells to Cetuximab", "setting": "CCK-81 cells; presence of HGF, dose matrix", "value": 18, "unit": "nM"},
      {"measurement": "anti-proliferation effect, single agent", "setting": "[1]; INC280 single agent, regardless of HGF addition", "value": "little or no anti-proliferation effect"},
      {"measurement": "INC280 concentration that re-sensitized cells to Cetuximab", "setting": "[1]; presence of HGF", "value": 18, "unit": "nM"}
    ]},
    {"compound": "HGF: Recombinant HGF (R&D Systems, 294-HG-005/CF), ligand activating MET [reference compound]", "values": [
      {"measurement": "growth-stimulating effect of HGF alone", "setting": "YD-38 cells; 75 ng/ml HGF alone", "value": "no growth-stimulating effect"},
      {"measurement": "growth-promoting effect by HGF alone", "setting": "CAL-33 cells; 75 ng/ml HGF alone", "value": "~16", "unit": "%"},
      {"measurement": "growth-stimulating effect of HGF alone", "setting": "CCK-81 cells; 75 ng/ml HGF alone", "value": "~19% and ~20%"}
    ]},
    {"compound": "Panitumumab: fully human monoclonal antibody specific to the epidermal growth factor receptor [reference compound]", "values": [
      {"measurement": "HGF rescue of the anti-proliferation effect of the EGFR antibody", "setting": "YD-38 cells; [4]", "value": "rescued"},
      {"measurement": "HGF rescue of the anti-proliferation effect of the EGFR antibody", "setting": "CAL-33 cells; [4]", "value": "rescued"},
      {"measurement": "HGF rescue of the anti-proliferation effect of the EGFR antibody", "setting": "CCK-81 cells; [4]", "value": "rescued"}
    ]}
  ]
}
